Experimental data as given in patent publication US20210292765A1, “COMPOSITIONS COMPRISING INTERMEDIATE NON-CODING RNA REGULATORS MODULATING THE EXPRESSION OF ETV6 OR FOXO1 AND USES THEREOF” (University of Exeter, priority 2018, published 2021).
Marks after values point to notes of the source that are not given here.

Key:
Assay type in all cases: cell-based
[1] = system: late passage primary human fibroblasts; experiment: Cell proliferation index by Ki67 immunofluorescence; conditions: for increase in proliferative index: gene knockdown with morpholino oligonucleotides (10 μM)
Procedure: The proliferative capacity of treated cells was assessed by Ki67 and BrdU staining and by cell counts. Late passage primary human fibroblasts at PD=63 were seeded at 1×10^4 cells per well in 3 biological replicates in 24-well plates, allowed to grow for 10 days and then assayed for cell proliferation by ki67 staining. For assessment of cells in S phase, late passage primary human fibroblasts at PD=63 were seeded at 1×10^4 cells per coverslip as 3 biological replicates in 24-well plates, allowed to grow for 10 days and then were incubated with 5-Bromo-2′-deoxy-uridine (BrdU) for 24 hrs. BrdU incorporation was determined by the 5-Bromo-2′-deoxy-uridine labeling and detection kit I following instructions of the manufacturer (Roche Molecular Biochemicals). BrdU positive cells were visualized and counted by fluorescence microscopy. Cell counts were carried out manually in 3 biological replicates in treated and vehicle-only cultures following trypsinisation and suspension of cells and are presented as mean (+/−SEM). Following treatment, cells were fixed for 10 min with 4% PFA and permeabilized with 0.025% Triton and 10% serum in PBS for 1 hour. Ki-67 staining was carried out by rabbit monoclonal antibody (ab16667, Abcam, UK) at a 1:400 dilution and samples were incubated overnight at 4° C., followed by FITC-conjugated secondary goat anti-rabbit antibody (1:400) for 1 hour, and nuclei were counterstained with DAPI. Coverslips were mounted on slides in DAKO fluorescence mounting medium (S3023; Dako, Santa Clara, USA). The proliferation index was determined by counting the percentage of Ki67 positive cells from at least 400 nuclei from each biological replicate at 400× magnification under a Leica D4000 fluorescence microscope.

[2] = system: late passage primary human fibroblasts; experiment: Cellular senescence by SA-β-Gal staining; conditions: gene knockdown with morpholino oligonucleotides (10 μM)
[3] = system: late passage primary human fibroblasts; experiment: CDKN2A (p16) and CDKN1A (p21) expression by qRTPCR; conditions: gene knockdown with morpholino oligonucleotides (10 μM)
[4] = system: late passage primary human fibroblast cells; experiment: SASP protein levels in culture medium (MesoScale multiplex ELISA); conditions: 24 hrs, culture medium from senescent cells
Procedure: Late passage primary human fibroblast cells at PD=63 were seeded at 6×10^4 cells per well in a 6 well plate, cultured for 10 days and then treated with at 1 μM or 10 μM trametinib (MEK/ERK inhibitor) or SH-6 (AKT inhibitor) for 24 hours. Cell supernatants were then harvested and stored at −80° C. Levels of GMCSF, IFNγ, IL1β, IL2, IL6, IL8, IL10, IL-12p70, and TNFα SASP components were measured in cell supernatants from treated and vehicle-only control cells using the K15007B MesoScale Discovery multiplex ELISA immunoassay (MSD, Rockville, USA) in 4 biological replicates. Proteins were quantified relative to a standard curve using a Sector Imager SI-6000 according to the manufacturer's instructions.

[5] = system: senescent primary human fibroblasts; experiment: Splicing factor transcript expression by qRTPCR (TLDA); conditions: 24 hrs, control = 1.00
Procedure: Late passage primary human fibroblasts at PD=63 were seeded at 6×10^4 cells per well as 3 biological replicates in 6-well plates, allowed to grow for 10 days and then treated with the ERK inhibitor trametinib or the AKT inhibitor SH-6 at 1 μM or 10 μM for 24 hrs. Vehicle (DMSO) only controls were also included under the same growth conditions. The expression levels of 20 splicing factor transcripts previously associated with age, replicative senescence or lifespan in our previous work (Harries et al. 2011; Holly et al. 2013; Lee et al. 2016) were then assessed by qRTPCR. RNA was extracted using TRI Reagent® (Life Technologies, Foster City USA) according to the manufacturer's instructions. Total RNA (100 ng) was reverse transcribed in 20 μl reactions using the Superscript III VILO kit (Life Technologies). Transcript expression was then quantified in duplicate for each biological replicate using TaqMan Low Density Array (TLDA) on QuantStudio 12K Flex (Applied Biosystems, Foster City, USA). Cycling conditions were 1 cycle each of 50° C. for 2 min, 94.5° C. for 10 min and then 40 cycles of 97° C. for 30 s and 57.9° C. for 1 min. The reaction mixes included 50 μl TaqMan Fast Universal PCR Mastermix (Life Technologies), 30 μl dH2O and 20 μl cDNA template. 100 μl reaction mixture was dispensed into the TLDA card chamber and centrifuged twice for 1 min at 1000 rpm. Transcript expression was assessed by the Comparative Ct approach, relative to the IDH3B, GUSB and PP/A endogenous control genes and normalised to their expression in RNA from untreated late passage cells.

FOXO1 morpholino: Antisense morpholino to 5′ untranslated region of FOXO1: TCCCCCAGCCGCAGGAGAGCCAAGA (all phosphorodiamidate morpholino (PMO))
increase in proliferative index [1]: 19%
reduction in senescent cell load as measured by SA-β-Gal staining [2]: ~40%
reduction in CDKN2A expression [3]: 43%

CC(=O)Nc1cccc(-n2c(=O)n(C3CC3)c(=O)c3c(Nc4ccc(I)cc4F)n(C)c(=O)c(C)c32)c1 [Trametinib, trametinib]
increase in proliferative index (Ki67 staining) ([1]; low dose (1 μM)): 31%
GM-CSF SASP protein expression ([4]; 1 uM): 24.65*** percentage of the control value
IL1b SASP protein expression ([4]; 1 uM): 156.70** percentage of the control value
IL2 SASP protein expression ([4]; 1 uM): 50.72** percentage of the control value
IL6 SASP protein expression ([4]; 1 uM): 77.75 percentage of the control value
IL8 SASP protein expression ([4]; 1 uM): 44.42** percentage of the control value
IL10 SASP protein expression ([4]; 1 uM): 34.37*** percentage of the control value
IL12p70 SASP protein expression ([4]; 1 uM): 69.64 percentage of the control value
INF-g SASP protein expression ([4]; 1 uM): 95.08 percentage of the control value
TNFa SASP protein expression ([4]; 1 uM): 104.61 percentage of the control value
GM-CSF SASP protein expression ([4]; 10 uM): 9.85*** percentage of the control value
IL1b SASP protein expression ([4]; 10 uM): 50.35** percentage of the control value
IL2 SASP protein expression ([4]; 10 uM): 14.39*** percentage of the control value
IL6 SASP protein expression ([4]; 10 uM): 33.57*** percentage of the control value
IL8 SASP protein expression ([4]; 10 uM): 5.33*** percentage of the control value
IL10 SASP protein expression ([4]; 10 uM): 86.01 percentage of the control value
IL12p70 SASP protein expression ([4]; 10 uM): 77.78 percentage of the control value
INF-g SASP protein expression ([4]; 10 uM): 106.33 percentage of the control value
TNFa SASP protein expression ([4]; 10 uM): 118.65 percentage of the control value
AKAP17A splicing factor mRNA expression ([5]; 1 uM): 2.01***
HNRNPA0 splicing factor mRNA expression ([5]; 1 uM): 2.38***
HNRNPA1 splicing factor mRNA expression ([5]; 1 uM): 1.52*
HNRNPA2B1 splicing factor mRNA expression ([5]; 1 uM): 1.53*
HNRNPD splicing factor mRNA expression ([5]; 1 uM): 1.79*
HNRNPH3 splicing factor mRNA expression ([5]; 1 uM): 1.89***
HNRNPK splicing factor mRNA expression ([5]; 1 uM): 1.68***
HNRNPM splicing factor mRNA expression ([5]; 1 uM): 1.46*
HNRNPUL2 splicing factor mRNA expression ([5]; 1 uM): 1.63***
IMP3 splicing factor mRNA expression ([5]; 1 uM): 1.77***
LSM2 splicing factor mRNA expression ([5]; 1 uM): 0.85
LSM14A splicing factor mRNA expression ([5]; 1 uM): 1.61**
PNISR splicing factor mRNA expression ([5]; 1 uM): 1.63**
SF3B1 splicing factor mRNA expression ([5]; 1 uM): 1.93***
SRSF1 splicing factor mRNA expression ([5]; 1 uM): 1.69*
SRSF2 splicing factor mRNA expression ([5]; 1 uM): 2.07**
SRSF3 splicing factor mRNA expression ([5]; 1 uM): 1.64***
SRSF6 splicing factor mRNA expression ([5]; 1 uM): 2.68***
SRSF7 splicing factor mRNA expression ([5]; 1 uM): 2.38***
TRA2B splicing factor mRNA expression ([5]; 1 uM): 1.66*
AKAP17A splicing factor mRNA expression ([5]; 10 uM): 0.74**
HNRNPA0 splicing factor mRNA expression ([5]; 10 uM): 1.11
HNRNPA1 splicing factor mRNA expression ([5]; 10 uM): 0.49***
HNRNPA2B1 splicing factor mRNA expression ([5]; 10 uM): 0.70***
HNRNPD splicing factor mRNA expression ([5]; 10 uM): 0.75**
HNRNPH3 splicing factor mRNA expression ([5]; 10 uM): 0.95
HNRNPK splicing factor mRNA expression ([5]; 10 uM): 1.02
HNRNPM splicing factor mRNA expression ([5]; 10 uM): 0.69***
HNRNPUL2 splicing factor mRNA expression ([5]; 10 uM): 0.94
IMP3 splicing factor mRNA expression ([5]; 10 uM): 0.97
LSM2 splicing factor mRNA expression ([5]; 10 uM): 0.82
LSM14A splicing factor mRNA expression ([5]; 10 uM): 1.18
PNISR splicing factor mRNA expression ([5]; 10 uM): 1.11
SF3B1 splicing factor mRNA expression ([5]; 10 uM): 0.96
SRSF1 splicing factor mRNA expression ([5]; 10 uM): 0.68**
SRSF2 splicing factor mRNA expression ([5]; 10 uM): 0.86*
SRSF3 splicing factor mRNA expression ([5]; 10 uM): 0.72***
SRSF6 splicing factor mRNA expression ([5]; 10 uM): 0.69***
SRSF7 splicing factor mRNA expression ([5]; 10 uM): 0.57***
TRA2B splicing factor mRNA expression ([5]; 10 uM): 0.73**

ETV6 morpholino: Antisense morpholino to 5′ untranslated region of ETV6: CATGTCTCACAGCGAGAGAGATCAG (all phosphorodiamidate morpholino (PMO))
increase in proliferative index [1]: 36%
reduction in senescent cell load as measured by SA-β-Gal staining [2]: ~18%
reduction in CDKN2A expression [3]: 24%
